Where “and” joins values, the source holds several entries; their conditions need not be identical. Identical values can stand only once. Entries after “also recorded” stand apart in the source; their conditions may differ.
Columns and labels:
[1] = Stability of ^18F-TFB (radio-TLC and anion chromatography HPLC); type: physicochemical
Description: The product ^18F-TFB was analyzed for radiochemical purity by both radio-TLC (MeOH, Rf=0.8-0.85) and anion chromatography HPLC with radioactivity detector (Dionex IC-2100, AS19 analytical column: 4.7×150 mm; eluent: 35 mM KOH; sample volume: 25.L; flow rate: 1 mL/min; retention times: 7.6 min for ^18F-TFB, […]). Chemical purity and specific activity were analyzed by anion chromatography HPLC (retention times: 3.5 min for fluoride, 4.3 min for chloride, and 7.6 min for BF4—). Residual organic solvents were analyzed by GC (helium carrier gas flow at 10 cc/min through a MXTWAX column (Restek, Bellefonte, Pa., 0.53 mm ID, 30 m length)).
After the synthesis, a sample was diluted with water for the analysis. With the eluent of methanol on silica gel plate, purities of >98% were obtained on the radio-TLC scanner.
^18F-TFB was prepared and formulated in sterile 0.9% NaCl under cGMP conditions as previously described (12). Decay-corrected radiochemical yields of 32±2% and radiochemical purities (RCPs) >98% were obtained. Specific radioactivity of 2.2±0.9 GBq/μmol was achieved from starting ^18F-fluoride radioactivity of 20-31 GBq. In vitro RCP remained >96% up to 8 h at room temperature.

[2] = Radiation dosimetry estimation (organ residence times, OLINDA); type: in vivo, human; details: for Residence Time, Bladder: bladder emptying model, 3.5 h voiding period; for Estimated absorbed radiation dose, Urinary Bladder Wall: bladder voiding interval of 3.5 h
Description: Radiation dosimetry estimates were calculated from organ residence times using OLINDA software (Ver. 1.1), assuming a bladder voiding interval of 3.5 h. Gender-specific organ masses for the conversion of SUV to disintegrations per organ per unit radioactivity administered (Bq-hr/Bq) were taken from Schlein et al. (15).
Bladder residence time was estimated by the bladder emptying model within the OLINDA software, assuming a 3.5 h bladder voiding period. The dose-critical organ is thyroid, with dose estimates of 0.26 and 0.36 mSv/MBq in males and females, respectively. […] Effective dose was higher in females (0.065 mSv/MBq) relative to males (0.036 mSv/MBq).

[3] = Safety measurements for ^18F-TFB administration (vital signs, clinical laboratory tests); type: in vivo, human
Description: Vital signs (heart rate, systolic and diastolic blood pressures, respiratory rate, and temperature) were measured prior to ^18F-TFB administration and at 45 and 240 min post-injection. Venous blood samples were taken prior to ^18F-TFB administration and at ˜240 min post-injection for a panel of clinical laboratory tests to evaluate the safety of the radiotracer administration.

[4] = ~400 MBq ^18F-TFB synthesized by the conventional method, human subject; Jauregui-Osoro et al. (14); cited from earlier work
[5] = Measurements in venous blood and urine samples, HPLC metabolite analysis; type: in vivo, human; details: all urine samples, approximately 50, 160, 250 min

F[B-](F)(F)[18F] [^18F-TFB, ^18F-tetrafluoroborate]
HPLC analysis of the product sample, ^18F-TFB peak ([1]; after 20 h): chemically stable
radiochemical purity by radio-TLC after 20 h ([1]; after 20 h, sample diluted with water, silica gel, methanol): > 96%
In vitro RCP ([1]; up to 8 h at room temperature, in sterile 0.9% NaCl): > 96%
Effective Dose ([2]; females): 0.065 mSv/MBq and 0.064 mSv/MBq
Estimated absorbed radiation dose, Adrenals ([2]; females): 0.012 mSv/MBq
Estimated absorbed radiation dose, Brain ([2]; females): 0.005 mSv/MBq
Estimated absorbed radiation dose, Breasts ([2]; females): 0.028 mSv/MBq
Estimated absorbed radiation dose, Gallbladder Wall ([2]; females): 0.022 mSv/MBq
Estimated absorbed radiation dose, Heart Wall ([2]; females): 0.030 mSv/MBq
Estimated absorbed radiation dose, Kidneys ([2]; females): 0.052 mSv/MBq
Estimated absorbed radiation dose, Liver ([2]; females): 0.033 mSv/MBq
Estimated absorbed radiation dose, Lower Large Intestine Wall ([2]; females): 0.015 mSv/MBq
Estimated absorbed radiation dose, Lungs ([2]; females): 0.014 mSv/MBq
Estimated absorbed radiation dose, Muscle ([2]; females): 0.011 mSv/MBq
Estimated absorbed radiation dose, Osteogenic Cells ([2]; females): 0.009 mSv/MBq
Estimated absorbed radiation dose, Ovaries ([2]; females): 0.020 mSv/MBq
Estimated absorbed radiation dose, Pancreas ([2]; females): 0.043 mSv/MBq
Estimated absorbed radiation dose, Red Marrow ([2]; females): 0.008 mSv/MBq
Estimated absorbed radiation dose, Skin ([2]; females): 0.004 mSv/MBq
Estimated absorbed radiation dose, Small Intestine Wall ([2]; females): 0.066 mSv/MBq
Estimated absorbed radiation dose, Spleen ([2]; females): 0.047 mSv/MBq
Estimated absorbed radiation dose, Stomach Wall ([2]; females): 0.184 mSv/MBq
Estimated absorbed radiation dose, Thymus ([2]; females): 0.005 mSv/MBq
Estimated absorbed radiation dose, Thyroid ([2]; females): 0.36 mSv/MBq
Estimated absorbed radiation dose, Total Body ([2]; females): 0.011 mSv/MBq
Estimated absorbed radiation dose, Upper Large Intestine Wall ([2]; females): 0.109 mSv/MBq
Estimated absorbed radiation dose, Uterus ([2]; females): 0.022 mSv/MBq
Residence Time, Bone ([2]; females): 3.1 ± 0.3 min
Residence Time, Brain ([2]; females): 1.3 ± 0.2 min
Residence Time, Breast ([2]; females): 2.8 ± 0.9 min
Residence Time, Gallbladder ([2]; females): 0.09 ± 0.04 min
Residence Time, Intestines ([2]; females): 13 ± 7 min
Residence Time, Kidney ([2]; females): 3.9 ± 0.8 min
Residence Time, Liver ([2]; females): 10 ± 2 min
Residence Time, Lung ([2]; females): 2.4 ± 0.2 min
Residence Time, Muscle ([2]; females): 26 ± 8 min
Residence Time, Myocardium ([2]; females): 1.8 ± 0.3 min
Residence Time, Pancreas ([2]; females): 0.58 ± 0.08 min
Residence Time, Parotid ([2]; females): 3.3 ± 1.2 min
Residence Time, Spleen ([2]; females): 1.6 ± 0.2 min
Residence Time, Stomach ([2]; females): 24 ± 12 min
Residence Time, Thyroid ([2]; females): 2.3 ± 0.9 min
Residence Time, Bladder ([2]; females): 19 ± 4 min
Estimated absorbed radiation dose, Urinary Bladder Wall ([2]; females): 0.22 mSv/MBq
Effective Dose ([2]; males): 0.036 mSv/MBq
Estimated absorbed radiation dose, Adrenals ([2]; males): 0.008 mSv/MBq
Estimated absorbed radiation dose, Brain ([2]; males): 0.004 mSv/MBq
Estimated absorbed radiation dose, Breasts ([2]; males): 0.002 mSv/MBq
Estimated absorbed radiation dose, Gallbladder Wall ([2]; males): 0.012 mSv/MBq
Estimated absorbed radiation dose, Heart Wall ([2]; males): 0.024 mSv/MBq
Estimated absorbed radiation dose, Kidneys ([2]; males): 0.049 mSv/MBq
Estimated absorbed radiation dose, Liver ([2]; males): 0.021 mSv/MBq
Estimated absorbed radiation dose, Lower Large Intestine Wall ([2]; males): 0.009 mSv/MBq
Estimated absorbed radiation dose, Lungs ([2]; males): 0.009 mSv/MBq
Estimated absorbed radiation dose, Muscle ([2]; males): 0.008 mSv/MBq
Estimated absorbed radiation dose, Osteogenic Cells ([2]; males): 0.008 mSv/MBq
Estimated absorbed radiation dose, Pancreas ([2]; males): 0.034 mSv/MBq
Estimated absorbed radiation dose, Red Marrow ([2]; males): 0.005 mSv/MBq
Estimated absorbed radiation dose, Skin ([2]; males): 0.003 mSv/MBq
Estimated absorbed radiation dose, Small Intestine Wall ([2]; males): 0.027 mSv/MBq
Estimated absorbed radiation dose, Spleen ([2]; males): 0.033 mSv/MBq
Estimated absorbed radiation dose, Stomach Wall ([2]; males): 0.076 mSv/MBq
Estimated absorbed radiation dose, Testes ([2]; males): 0.005 mSv/MBq
Estimated absorbed radiation dose, Thymus ([2]; males): 0.004 mSv/MBq
Estimated absorbed radiation dose, Thyroid ([2]; males): 0.26 mSv/MBq
Estimated absorbed radiation dose, Total Body ([2]; males): 0.008 mSv/MBq
Estimated absorbed radiation dose, Upper Large Intestine Wall ([2]; males): 0.045 mSv/MBq
Residence Time, Bone ([2]; males): 4.6 ± 1.3 min
Residence Time, Brain ([2]; males): 1.2 ± 0.4 min
Residence Time, Gallbladder ([2]; males): 0.06 ± 0.03 min
Residence Time, Intestines ([2]; males): 5.7 ± 1.9 min
Residence Time, Kidney ([2]; males): 4.2 ± 1.2 min
Residence Time, Liver ([2]; males): 8.3 ± 3.9 min
Residence Time, Lung ([2]; males): 2.1 ± 0.7 min
Residence Time, Muscle ([2]; males): 36 ± 14 min
Residence Time, Myocardium ([2]; males): 2.1 ± 0.6 min
Residence Time, Pancreas ([2]; males): 0.7 ± 0.3 min
Residence Time, Parotid ([2]; males): 1.7 ± 1.1 min
Residence Time, Spleen ([2]; males): 1.5 ± 0.4 min
Residence Time, Stomach ([2]; males): 11 ± 5 min
Residence Time, Thyroid ([2]; males): 2.0 ± 0.7 min
Residence Time, Bladder ([2]; males): 17 ± 2 min
Estimated absorbed radiation dose, Urinary Bladder Wall ([2]; males): 0.14 mSv/MBq
clinical laboratory test values after administration ([3]; blood chemistries, electrolytes, liver and kidney functional tests, relative to baseline): No significant changes; also recorded: no significant findings
adverse effects ([3]; eight healthy participants): no adverse effects
tolerability of administration ([3]; healthy participants, 333-407 MBq intravenous): well-tolerated; also recorded: well tolerated
vital signs after administration ([3]; heart rate, blood pressures, respiratory rate, before vs after administration): No significant changes; also recorded: no significant findings
estimated plasma concentration of TFB [4]: ~0.1 µM
radioactivity in the form of ^18F-TFB in urine [5]: > 97%
